The nature of data set [1]: PAMPA permeability (Pre-coated PAMPA Plate System Gentest). Type of data set: in vitro ADME.
Source text: Caffeine (CFN) and norfloxacin (NFX) were used as the high- and low-permeable references, respectively.
The test system of data set [2] is MES-induced seizures in mice. The data set is described as follows: Maximal electroshock seizure (MES) test. It is filed as in vivo. The settings on record: for responders at 100 mg/kg / ED50: Mus musculus, ip; for responders at 100 mg/kg: read-out: MES screening: number of mice protected/number of mice tested (converted); for ED50: mice, pretreatment time 0.5 h, (95% confidence limits). As for the experimental part: (§1) Adult male Albino Swiss mice that weighed between 22 and 26 g were used in the in vivo studies. They were housed under standardized housing conditions in colony cages and had free access to food as well as tap water. The animals were left to adapt under laboratory conditions for 7 days. All procedures involving animals and their care were performed in accordance with the current European Community and Polish legislation on animal experimentation.
(§2) In the initial screening studies, four mice per group were randomly assigned to each experimental group (each mouse was used only once). To evaluate the ED50 or TD50 values, 3–4 groups that consisted of eight animals were injected with various doses of tested compounds. The protective indexes (PIs) for the compounds that were investigated and reference ASDs were calculated by dividing the TD50 value, as determined in the chimney test (or rotarod test), by the respective ED50 value, as determined in the MES, scPTZ, or 6 Hz (32 mA or 44 mA) tests (PI = TD50/ED50). The PIs is a measure of the potential therapeutic window of the tested agent.
(§3) All substances were suspended in Tween 80 (1% aqueous solution) and administered i.p. as a single injection at a dose of 10 mL/kg. On each day of experimentation, fresh solutions were prepared. The results are summarized in Table S1 (screening data) and Table 2 (ED50, TD50, and PI values, see Section 3 Results and Discussion).
(§4) The detailed in vivo procedures are described elsewhere: the maximal electroshock seizure test (MES), the subcutaneous pentylenetetrazole seizure test (scPTZ), the 6 Hz psychomotor seizure model (32 mA and 44 mA), and the chimney test.
(§5) The basic animal seizure models such as the MES, 6 Hz (32 mA or 44 mA), and the scPTZ are still a standard in the discovery and development of new ASDs. In vivo screening approaches enable the identification of compounds with unidentified and potentially novel mechanisms of action besides substances with well-established pharmacodynamics. Bearing in mind the aforementioned facts, compounds 45–66 were initially studied in the MES test and in the 6 Hz seizure model (32 mA) after intraperitoneal (i.p.) administration at a screening dose of 100 mg/kg in mice at a time point of 0.5 h (the screening group consisted of four mice, the results obtained are summarized in Table S1). It should be stressed that the MES test is an experimental model of human tonic–clonic epilepsy as well as partial convulsions with or without secondary generalization, the 6 Hz model (32 mA) corresponds to human focal epilepsy, whereas the scPTZ test relates to human generalized absence or myoclonic seizures.
(§6) We also established the median toxic doses (TD50) in the chimney test 0.5 h post i.p. administration of these compounds. Both the aforementioned parameters enabled the calculation of the protective indexes (PIs).

The next data set deals with T1, TRPV1 (VR1) (h) (Homo sapiens, UniProt Q8NER1).
T1 construct: host or cells: CHO
T1 sequence (Q8NER1 whole entry): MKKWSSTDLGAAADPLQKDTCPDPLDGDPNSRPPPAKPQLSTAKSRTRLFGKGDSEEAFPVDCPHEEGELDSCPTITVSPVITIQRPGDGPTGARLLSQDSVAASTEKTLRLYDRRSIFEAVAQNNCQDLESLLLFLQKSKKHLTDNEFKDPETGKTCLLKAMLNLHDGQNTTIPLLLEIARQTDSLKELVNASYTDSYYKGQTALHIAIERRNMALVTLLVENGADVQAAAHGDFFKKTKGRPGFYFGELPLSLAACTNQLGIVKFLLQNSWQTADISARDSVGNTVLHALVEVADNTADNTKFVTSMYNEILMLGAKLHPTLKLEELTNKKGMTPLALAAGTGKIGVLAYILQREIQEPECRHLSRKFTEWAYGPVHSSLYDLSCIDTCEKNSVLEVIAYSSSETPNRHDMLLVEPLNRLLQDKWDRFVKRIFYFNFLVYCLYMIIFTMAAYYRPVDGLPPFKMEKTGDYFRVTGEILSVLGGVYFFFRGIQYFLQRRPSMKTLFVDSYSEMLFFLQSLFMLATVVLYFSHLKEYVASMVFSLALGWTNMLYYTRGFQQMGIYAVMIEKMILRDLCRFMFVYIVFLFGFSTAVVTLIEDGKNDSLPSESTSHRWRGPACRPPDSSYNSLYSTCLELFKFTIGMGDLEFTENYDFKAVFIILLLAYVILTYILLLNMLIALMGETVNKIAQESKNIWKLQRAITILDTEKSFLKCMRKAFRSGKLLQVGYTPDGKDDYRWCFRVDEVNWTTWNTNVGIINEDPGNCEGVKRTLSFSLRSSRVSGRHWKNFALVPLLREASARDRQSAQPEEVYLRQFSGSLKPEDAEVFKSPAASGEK
The data set is described as follows: TRPV1 (VR1) (h) antagonist effect functional assay. It is filed as cell-based. The settings on record: human recombinant CHO cells, read-out: % Inhibition of control agonist response, TRPV1 (antagonist effect). How it is done:
Binding/functional studies were carried out commercially in Eurofins Laboratories (Poitiers, France) and Eurofins Panlabs Discovery Services Taiwan, Ltd. (New Taipei City, Taiwan) using testing procedures that were reported previously (for details see Table S2).
Table S2. Radioligand binding and functional assays. […]
Assays were performed commercially in Eurofins Laboratories (Poitiers, France) or Eurofins Panlabs Discovery Services Taiwan, Ltd. (New Taipei City, Taiwan).
Table S3. In vitro TRPV1 channel antagonist activity for compounds 45–66 (concentration of 100 µM). […]
Cmpd % Inhibition of control Cmpd % Inhibition of control agonist responsea agonist responsea
*Source: human recombinant CHO cells. a Results showing activity higher than 50% are considered to represent […]
variability of the sign al around the control level. Assays were performed commercially in Eurofins Laboratories

Data set [3] concerns scPTZ-induced seizures in mice. The data set is described as follows: Subcutaneous pentylenetetrazole (scPTZ) seizure test. Type of data set: in vivo. The settings on record: 100 mg/kg i.p., 0.5 h. As for the experimental part: as §1, §2, §3, §4, §5
The test system of data set [4] is 6 Hz (32 mA) seizures in mice. Kind of data set: 6 Hz (32 mA) psychomotor seizure model. It is filed as in vivo. The settings on record: Mus musculus, ip; for responders at 100 mg/kg: 100 mg/kg i.p., 0.5 h; for ED50: mice, pretreatment time 0.5 h, (95% confidence limits). How it is done: as §1, §2, §3, §4, §5, §6
A short description of data set [5]: Chimney test (acute neurological deficit). The settings on record: mouse, in vivo, ip, mice. How it is done:
as §2, §3, §4
We also established the median toxic doses (TD50) in the chimney test 0.5 h post i.p. administration of these compounds. […]

[6] abbreviates: four mice, read-out: protection in 6 Hz (32 mA) screening.
Where [7] appears, read: read-out: 6 Hz (32 mA) screening: number of mice protected/number of mice tested (converted).

Like-named read-outs stand apart in the source and are kept apart here. A value given as a limit tells only on which side of the number the result lay.

On to `Cn1c(=O)c2c(ncn2C)n(C)c1=O` [CFN, Caffeine, reference compound], for which the “Pe (permeability coefficient) ± SD” value in data set [1] is listed as 12.22 ± 0.94 10^−6 cm/s.

Consider `CC(=O)NC(C(=O)N1CCN(c2ccccc2)CC1)c1ccccc1` (stereo not drawn) [Compound 45, N-(2-oxo-1-phenyl-2-(4-phenylpiperazin-1-yl)ethyl)acetamide], for which, in data set [2] (100 mg/kg i.p., 0.5 h, four mice), the “protection in MES screening” value stood at 75%. The responders at 100 mg/kg was 75% in data set [2] (100 mg/kg i.p., 0.5 h); 75% in data set [4] (setting [6]); 75% in data set [4] (setting [7]). Also, the ED50 (as a rule, the dose at which the effect has come halfway, by size or by number of responders) came to 125 mg/kg in data set [2] and 81.6 mg/kg in data set [4]. Further, the inhibition (as a rule, the change of the read-out against control, counted positive when it falls) at 100 µM on TRPV1 (VR1) (h) was 36.1%. In addition, the “scPTZ screening: number of mice protected/number of mice tested” value in data set [3] is on record as 0/4. For the same compound, the TD50 at 0.5 h in data set [5] was 268 mg/kg.

Turning to `CC(=O)NC(C(=O)N1CCN(c2cccc(Cl)c2)CC1)c1ccccc1` (stereo not drawn) [Compound 47, N-(2-(4-(3-chlorophenyl)piperazin-1-yl)-2-oxo-1-phenylethyl)acetamide], the melting point (usually the temperature of the solid-liquid transition) was in the range of 145.5 to 146.7 °C. Moreover, in data set [2] (100 mg/kg i.p., 0.5 h), the responders at 100 mg/kg was 0%. Moreover, the ED50 in data set [2] was more than 150 mg/kg. For the same compound, the inhibition at 100 µM on TRPV1 (VR1) (h) was determined as 125%. In addition, the responders at 100 mg/kg in data set [4] (setting [6]) turned out to be 75%. Also, the responders at 100 mg/kg in data set [4] (setting [7]) is 75%. Besides, the 50% effective dose (ED50) in data set [4] was 88.4 mg/kg. The compound further gave a TD50 at 0.5 h in data set [5] of more than 500 mg/kg.

These data come from paper PMC9221546, “New Phenylglycinamide Derivatives with Hybrid Structure as Candidates for New Broad-Spectrum Anticonvulsants” (Cells, 2022).
